Measurements published in patent EP0189142A2, “Arylalkoxyphenyl-allylic alcohols as agents for the treatment of hypersensitive ailments” (USV PHARMACEUTICAL CORPORATION, priority 1985, dated 1986).
pIC50: −log10 of the molar value.

Experiments:
Phospholipase C (PLC) = experiment: In vitro assay for inhibitors of Phospholipase C (PLC); type: biochemical; settings: PLC from aggregated purified rat platelets (CaCl2, ADP); 3H-phosphatidylinositol substrate; pH 9.0, 37°C, 10 minutes; read-out: (PLC) Phospholipase C inhibition (I50)
From the text: (§1) Two assays have been developed to test the ability of the invented compounds on the activity of the phospholipases. In one protocol, a procedure is described for testing the inhibitory effects of these compounds on Phospholipase C (PLC), while the other protocol describes a means for testing the inhibitory effect of these compounds on Phospholipase A2 (P^LA2).
Protocol for In Vitro Assay for Inhibitors of
The PLC employed in this screen is obtained by aggregation of purified rat platelets in the presence of CaCl2 and ADP. In the enzyme assay, phosphatidylinositol having ^3H-labeled arachidonate residues at R2 is employed as substrate. PLC acts by cleaving the phosphate ester bond yielding diglyceride as follows: [drawing 21] ^3H-Phosphatidylinosit-tol ^3H-diglyceride Inositol (cont.)
Following completion of the reaction, the assay medium is acidified and extracted with hexane which takes up unreacted substrate and diglvceride. The hexane extract is passed over a short silica gel column which retains 99% of the phosphatidylinositol. […] The diglyceride is conveniently quantitated by liquid scintillation spectrometry. […]
Following acidification, the samples were extracted with 2 ml of isopropyl alcohol and 2 ml of hexane, vortexed and allowed to stand until the phrases separate. […] The radiolabeled diglycerides were quantitated by liquid scintillation spectrometry.

Rat PMN 5-lipoxygenase = biological target: T1, Rat PMN 5-lipoxygenase (Rattus norvegicus, UniProt P12527); experiment: Protocol for detecting inhibitors of the lipoxygenase pathway (5-HETE formation in rat neutrophils); type: cell-based; settings: suspension of rat neutrophils, 3 minutes at 30°C with [14C]-arachidonic acid and Calcium Ionophore A23187; net 5-HETE produced; read-out: Rat PMN 5-lipoxygenase inhibition (I50)
T1 construct: endogenous in cells; host or cells: rat neutrophils (PMN)
T1 sequence (P12527 1-673): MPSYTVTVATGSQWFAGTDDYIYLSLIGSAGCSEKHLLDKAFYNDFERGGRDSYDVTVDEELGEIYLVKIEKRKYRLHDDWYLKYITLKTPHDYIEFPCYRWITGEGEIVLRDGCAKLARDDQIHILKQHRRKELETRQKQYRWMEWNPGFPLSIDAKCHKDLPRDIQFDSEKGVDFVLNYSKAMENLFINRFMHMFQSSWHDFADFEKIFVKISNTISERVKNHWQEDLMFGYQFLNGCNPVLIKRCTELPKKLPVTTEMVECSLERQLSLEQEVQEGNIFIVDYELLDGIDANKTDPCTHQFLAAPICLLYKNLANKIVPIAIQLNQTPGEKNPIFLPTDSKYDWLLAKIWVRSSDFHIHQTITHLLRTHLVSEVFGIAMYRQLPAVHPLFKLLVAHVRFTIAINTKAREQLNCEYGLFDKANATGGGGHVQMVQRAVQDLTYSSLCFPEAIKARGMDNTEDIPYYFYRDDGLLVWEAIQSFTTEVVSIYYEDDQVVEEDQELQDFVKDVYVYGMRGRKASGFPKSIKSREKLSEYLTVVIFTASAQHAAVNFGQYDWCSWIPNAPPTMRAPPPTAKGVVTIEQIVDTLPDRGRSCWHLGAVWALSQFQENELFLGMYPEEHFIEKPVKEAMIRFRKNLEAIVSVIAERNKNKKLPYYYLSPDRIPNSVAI
Procedure: The following protocol describes an assay to detect inhibitors of the lipoxygenase pathway. Such inhibitors are believed to be capable of modulating the biosynthesis of the leukotrienes, a property believed to be useful in treating asthma and inflammatory disease states.
Protocol for Detecting Inhibitors of the Lipoxygenase Pathway
A suspension of rat neutrophils in buffer is incubated for 3 minutes at 30°C with [^14]-arachidonic acid (AA) and Calcium Ionophore A23'187. Citric acid (2M) is used to quench the reaction. Following the addition of a trace amount of (^3H)-5-HETE together with an excess of unlabeled 5-HETE to each tube, the mixture is extracted with chloroform/methanol. The organic layer is washed with dilute acid and an aliquot is transferred to glass tubes and dried. The residue is dissolved in a small volume of chloroform and an aliquot is spotted on silica gel TLC sheets, which are developed with an ethyl acetate/isooctane/water/acetic acid solvent system. The 5-HETE spots are visualized with iodine, cut out and placed in scintillation vials for counting. After adjusting for the extraction efficiency, the amount (pmole) of [^14C]-5-HETE in each of the tubes is quantitated by substracting the net pmoles of 5-HETE in the tubes containing buffer alone (blank) from the pmoles of 5-HETE in the tubes containing […]. The ability of the test compounds to modulate the activity of this enzyme is determined by a decrease or increase in the net amount of 5-HETE produced.

Phospholipase A2 (PLA2) = biological target: T2, Phospholipase A2 (PLA2) (Rattus norvegicus, UniProt P14423); experiment: In vitro assay for inhibitors of Phospholipase A2 (PLA2); type: biochemical; settings: PLA2 from aggregated purified rat platelets; 14C-phosphatidylcholine substrate; pH 7.2, 37°C, 30 minutes; read-out: (PLA2) Phospholipase A2 inhibition (I50)
T2 construct: obtained by aggregation of purified rat platelets; from tissue; host or cells: rat platelets (material obtained on aggregation)
T2 sequence (P14423 22-146): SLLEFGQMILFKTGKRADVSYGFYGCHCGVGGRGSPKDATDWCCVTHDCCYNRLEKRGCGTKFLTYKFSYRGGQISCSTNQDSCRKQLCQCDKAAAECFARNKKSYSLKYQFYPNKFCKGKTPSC
From the text: as §1
Protocol for In Vitro Assay for Inhibitors of Phospholipase A2 Assayed at oH 7.0 (PLA2)
The PLA2 employed in this screen is obtained by aggregation of purified rat platelets. In the enzyme assay phosphatidylcholine having ^14C-labeled palmitate residues at Rl and R2 is employed as substrate. PLA2 acts by cleaving the R2 fatty acid ester bond yielding free fatty acid and lysophosphatidyl choline as follows: [drawing 22]
Following completion of the reaction, the assay medium is acidified and extracted with hexane, which takes up unreacted substrate and free fatty acid product. The hexane extract is passed over a short silica gel column which retains 99% of the phosphatidyl choline. The ^14C-labeled palmitic acid is not retained (90% recovery in eluate) and is collected directly in scintillation counting vials. The released palmitic acid is conveniently quantitated by liquid scintillation spectrometry.
The compounds were tested at 100 uM in a buffer containing 0.3 mM unlabeled phosphatidylcholine (PC), 20-30,000 cpm of ^14C [PC], 100 mM NaCl, 1 mM CaCl2 and 50 mM Tris-HCL adjusted to pH 7.2 with 1 N NaOH. […] The reaction was initiated by addition of the enzyme and it was terminated 30 minutes later by the addition of 100 ml of 1 N HCL.
Following acidification, the complex was extracted with 2 ml of 2-propanol and 2 ml of hexane, vortexed, and allowed to stand until the phases separated. Free fatty acids (FFA) and some unreacted substrate were taken up in the isopropanol-saturated hexane. The hexane phase of the extraction mixture was transferred to a short silica gel column which retained unreacted PC but not the FFA. The column effluent was collected directly in scintillation vials. The columns were washed once with an additional 2 ml of hexane. The radiolabeled FFA were ^quantitated by liquid scintillation spectrometry.

| SMILES | pIC50 (Phospholipase C (PLC)) | pIC50 (Rat PMN 5-lipoxygenase) | pIC50 (Phospholipase A2 (PLA2)) |
| --- | --- | --- | --- |
| CN(C)CCC(O)C=Cc1ccc(OCc2ccccc2)cc1 (stereo not drawn) [Compound 37] | 4.62 | – | – |
| CC(O)C=Cc1ccc(OCc2ccccc2)c(OCc2ccccc2)c1 (stereo not drawn) [Compound 28] | – | 5.70 | – |
| CCCCCC(O)C=CC=Cc1ccc(OCc2ccccc2)cc1 (stereo not drawn) [Compound 32] | – | 5.15 | – |
| CC(O)C=Cc1ccc(OCc2ccccc2)cc1OCc1ccccc1 (stereo not drawn) [Compound 22] | – | 6.00 | 4.05 |
| CC(O)C=Cc1ccc(OC(c2ccccc2)c2ccccc2)cc1 (stereo not drawn) [Compound 39] | – | 5.46 | 4.51 |
| CC(O)C=Cc1ccc(OCc2ccccc2)cc1 [Compound 21, 4-(D-BenzyloxyDhenyl)-3-buten-2-ol] | – | 5.82 | 3.92 |
| CC(C)(C)C(O)C=Cc1ccc(OCc2ccccc2)cc1OCc1ccccc1 (stereo not drawn) [Compound 25] | – | 5.96 | 4.10 |
| CC(C)(C)C(O)C=Cc1ccc(OCc2ccccc2)c(OCc2ccccc2)c1 (stereo not drawn) [Compound 29] | – | 5.64 | – |
| CC(C)(C)C(O)C=CC=Cc1ccc(OCc2ccccc2)cc1 (stereo not drawn) [Compound 34] | – | 5.35 | – |
| CC1CCCC(=Cc2ccc(OCc3ccccc3)cc2)C1O (stereo not drawn) [Compound 40] | – | – | 3.77 |
| CC(C)(C)CC(O)C=Cc1ccc(OCc2ccccc2)cc1OCc1ccccc1 (stereo not drawn) [Compound 24] | – | 6.52 | 4.00 |
| OCC=Cc1ccc(OCc2ccccc2)cc1OCc1ccccc1 [Compound 42] | – | 5.85 | – |
| CCCCCC(O)C=Cc1ccc(OCc2ccccc2)cc1OCc1ccccc1 (stereo not drawn) [Compound 23] | – | 5.00 | – |
